This is an account of results in PubChem BioAssay (NCI).

“And” between values parts separate entries of the source, which are not always exact repeats. Identical values can stand only once.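 All cell lines were grown in 96-well plates and treated with compound for 48 hours. GI50 = concentration required for 50% inhibition of growth. TGI is the concentration that stops growth completely.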

Test systems include A549 NSCLC; CAKI-1 renal; HCC-2998 colon; NCI-H226 lung; OVCAR-3 ovarian; SF-539 CNS; SK-MEL-28 melanoma; SK-OV-3 ovarian; SNB-75 CNS; SW-620 colon.
Holding throughout (assay): growth of human tumour cells (NCI), 48 h

As to `O=Cc1c(-c2cc(O)ccc2O)nc2sccn12`, the GI50 with A549 NSCLC was 25.7 µM; in the assay on CAKI-1 renal, 0.958 µM; in the assay on HCC-2998 colon it was 17.3 µM; in the assay with NCI-H226 lung, 14.7 µM; in the assay on OVCAR-3 ovarian it was 1.6 µM; in the assay with SF-539 CNS, 20.3 µM. The GI50 in the assay with SK-MEL-28 melanoma is 23.8 µM; in the assay on SK-OV-3 ovarian, 78.5 µM; in the assay on SNB-75 CNS, 36.9 µM; in the assay on SW-620 colon it was 25.3 µM. Also, the TGI was over 100 µM in the assay on A549 NSCLC; 4.09 µM in the assay with CAKI-1 renal; 33.6 µM in the assay with HCC-2998 colon; 37.7 µM in the assay with NCI-H226 lung; 6.47 µM in the assay on OVCAR-3 ovarian; 52 µM with SF-539 CNS. Further, the TGI with SK-MEL-28 melanoma was 96.6 µM; with SK-OV-3 ovarian, over 100 µM; in the assay with SNB-75 CNS, over 100 µM; in the assay on SW-620 colon, over 100 µM.
As for `O=C(/C=C/c1cccnc1)NCCCCC1CCN(C(=O)c2ccccc2)CC1`, the GI50 in the assay with A549 NSCLC was 0.166 µM; with CAKI-1 renal, over 100 µM; in the assay on NCI-H226 lung it was > 100 µM and 62.3 µM; in the assay on OVCAR-3 ovarian, 48.5 µM and 6.22 µM; in the assay with SF-539 CNS it was under 0.01 µM; in the assay with SK-MEL-28 melanoma it was over 100 µM. In addition, the GI50 in the assay on SK-OV-3 ovarian is over 100 µM; in the assay on SNB-75 CNS it was over 73.6 µM; in the assay with SW-620 colon, under 0.01 µM. Also, the TGI with A549 NSCLC, in the assay on CAKI-1 renal, in the assay with HCC-2998 colon, with NCI-H226 lung, in the assay with OVCAR-3 ovarian and with SF-539 CNS was over 100 µM throughout. The TGI in the assay on SK-MEL-28 melanoma, in the assay with SK-OV-3 ovarian, with SNB-75 CNS and in the assay with SW-620 colon was over 100 µM throughout.
Turning to `O=c1c2ccccc2c2ccccc2c(=O)n1-c1cc2c3ccccc3ccc2c2ccccc12`, the TGI was over 100 µM in the assay with A549 NSCLC; over 100 µM with CAKI-1 renal; 89.1 µM in the assay on HCC-2998 colon; over 100 µM with NCI-H226 lung; over 100 µM in the assay with OVCAR-3 ovarian; over 100 µM in the assay on SF-539 CNS. Further, the TGI with SK-MEL-28 melanoma, with SK-OV-3 ovarian, in the assay on SNB-75 CNS and in the assay on SW-620 colon was over 100 µM each time.
For `O=C(O)CNc1c2ccccc2nc2ccccc12`, the TGI in the assay on A549 NSCLC, in the assay on CAKI-1 renal, with HCC-2998 colon, with NCI-H226 lung, in the assay with OVCAR-3 ovarian and in the assay on SF-539 CNS was over 100 µM in each case. Besides, the TGI in the assay on SK-MEL-28 melanoma, with SK-OV-3 ovarian, with SNB-75 CNS and in the assay with SW-620 colon was over 100 µM throughout.
As for `OCc1cn(Cc2cccc(Cl)c2)c2ccccc12`, the GI50 is 15 µM with A549 NSCLC; 12 µM in the assay on HCC-2998 colon; 0.0313 µM in the assay with NCI-H226 lung; 0.128 µM in the assay on OVCAR-3 ovarian; 13.5 µM with SF-539 CNS; 20.5 µM with SK-MEL-28 melanoma. Further, the values for the GI50 with SK-OV-3 ovarian, in the assay with SNB-75 CNS and with SW-620 colon were 4.42 µM, 7.7 µM and 0.586 µM, respectively. Further, the TGI is 65.8 µM in the assay with A549 NSCLC; 1.87 µM in the assay with CAKI-1 renal; 28.3 µM in the assay with HCC-2998 colon; 0.222 µM with NCI-H226 lung; 1.1 µM with OVCAR-3 ovarian; 30.9 µM in the assay with SF-539 CNS. Further, the TGI was 60.9 µM with SK-MEL-28 melanoma, 47.4 µM in the assay with SK-OV-3 ovarian, 29 µM in the assay with SNB-75 CNS and 33.3 µM with SW-620 colon.
On to `c1ccc(Cc2nc3ccc(Nc4ncnc5ccccc45)cc3[nH]2)cc1`, for which the GI50 with A549 NSCLC is over 25 µM; in the assay on CAKI-1 renal it was 8.34 µM; in the assay on HCC-2998 colon it was over 25 µM; in the assay on NCI-H226 lung, over 25 µM; with OVCAR-3 ovarian it was over 25 µM; in the assay on SF-539 CNS, over 25 µM. The GI50 was over 25 µM with SK-MEL-28 melanoma, 7.03 µM in the assay on SK-OV-3 ovarian, over 25 µM with SNB-75 CNS and over 25 µM with SW-620 colon. Moreover, the TGI with A549 NSCLC, in the assay with CAKI-1 renal, with HCC-2998 colon, with NCI-H226 lung, in the assay on OVCAR-3 ovarian and with SF-539 CNS was over 25 µM in each case. The TGI in the assay with SK-MEL-28 melanoma, in the assay on SK-OV-3 ovarian, in the assay on SNB-75 CNS and in the assay on SW-620 colon was over 25 µM in each case.
With `COP(=O)(OC)C(NC(c1ccccc1)c1ccccc1)c1ccc2c(c1)OCO2` (stereo not given), the GI50 in the assay on A549 NSCLC is 27.3 µM; in the assay on CAKI-1 renal, 33.2 µM; with HCC-2998 colon, 33.5 µM; in the assay on NCI-H226 lung, 30.7 µM; with OVCAR-3 ovarian, 22.1 µM; in the assay with SF-539 CNS, 20.2 µM. Besides, the GI50 is 21.5 µM with SK-MEL-28 melanoma, 40.7 µM in the assay with SK-OV-3 ovarian, 30.5 µM in the assay with SNB-75 CNS and 31.7 µM in the assay with SW-620 colon. Further, the TGI with A549 NSCLC was over 100 µM; in the assay with CAKI-1 renal, 89 µM; in the assay on HCC-2998 colon, over 100 µM; in the assay on NCI-H226 lung it was 66.6 µM; with OVCAR-3 ovarian, 50.2 µM; with SF-539 CNS it was 36 µM. Besides, the TGI is 44.8 µM in the assay with SK-MEL-28 melanoma, over 100 µM in the assay with SK-OV-3 ovarian, 67.2 µM in the assay with SNB-75 CNS and over 100 µM in the assay on SW-620 colon.
With `COC(=O)C(CCS(=O)(=O)CC(=O)C(=O)Nc1cccc(C(C)=O)c1)C(=O)OC`, the TGI in the assay with A549 NSCLC, in the assay on CAKI-1 renal, in the assay on HCC-2998 colon, in the assay on NCI-H226 lung, with OVCAR-3 ovarian and in the assay with SF-539 CNS was over 100 µM throughout. Besides, the TGI in the assay on SK-MEL-28 melanoma, in the assay on SK-OV-3 ovarian, in the assay with SNB-75 CNS and in the assay on SW-620 colon was over 100 µM in each case.
Regarding `Cc1c(C#N)cccc1-c1cc(-c2cn(Cc3cccc(C(C)(C)O)n3)nn2)nc(N)n1`, the GI50 in the assay with A549 NSCLC is 26.9 µM; with CAKI-1 renal, 10.4 µM; in the assay with HCC-2998 colon it was 90.3 µM; with NCI-H226 lung, 22.7 µM; with OVCAR-3 ovarian, 17.6 µM; in the assay on SF-539 CNS it was 39.6 µM. For the same compound, the GI50 with SK-MEL-28 melanoma was 39.1 µM; with SK-OV-3 ovarian it was 48.8 µM; in the assay on SNB-75 CNS it was 2.96 µM; in the assay on SW-620 colon, 51.3 µM. Also, the TGI with A549 NSCLC is over 100 µM; in the assay with CAKI-1 renal it was over 100 µM; in the assay with HCC-2998 colon, over 100 µM; in the assay with NCI-H226 lung, 91.9 µM; in the assay with OVCAR-3 ovarian, over 100 µM; in the assay on SF-539 CNS, over 100 µM. Moreover, the TGI was over 100 µM in the assay with SK-MEL-28 melanoma, over 100 µM in the assay with SK-OV-3 ovarian, 39 µM in the assay on SNB-75 CNS and over 100 µM in the assay with SW-620 colon.
Turning to `CCCC[C@H]1C(=O)O[C@H](C)[C@H](NC(=O)c2cccc(NC=O)c2O)C(=O)O[C@@H](C)[C@@H]1OC(=O)CC(C)C`, the TGI was 29.5 µM with A549 NSCLC; 40.9 µM with CAKI-1 renal; 35.1 µM with HCC-2998 colon; 23.8 µM with NCI-H226 lung; 24.6 µM in the assay with OVCAR-3 ovarian; 31.8 µM in the assay on SF-539 CNS. Besides, the TGI was 72.9 µM with SK-MEL-28 melanoma, 54.4 µM in the assay with SK-OV-3 ovarian, 59.9 µM in the assay on SNB-75 CNS and 68.3 µM with SW-620 colon.
Consider `[N-]=[N+]=NC(c1cn(C2CC(O)C(CO)O2)c(=O)[nH]c1=O)C(Br)I` (stereo not given), for which the TGI in the assay with A549 NSCLC, in the assay on CAKI-1 renal, in the assay on HCC-2998 colon, in the assay with NCI-H226 lung, in the assay with OVCAR-3 ovarian and in the assay on SF-539 CNS was over 100 µM throughout. The TGI in the assay with SK-MEL-28 melanoma, in the assay with SK-OV-3 ovarian, in the assay on SNB-75 CNS and with SW-620 colon was over 100 µM in each case.
In the case of `C(=N\Nc1ccccn1)/c1ccccn1`, the GI50 in the assay on A549 NSCLC was 0.501 µM; in the assay on CAKI-1 renal, 0.257 µM; in the assay with HCC-2998 colon, 0.272 µM; with NCI-H226 lung, 0.356 µM; in the assay with OVCAR-3 ovarian it was 0.286 µM; in the assay with SF-539 CNS, 0.333 µM. The GI50 is 0.816 µM in the assay with SK-MEL-28 melanoma, 0.393 µM in the assay on SK-OV-3 ovarian, 0.665 µM in the assay on SNB-75 CNS and 0.557 µM with SW-620 colon. Moreover, the TGI in the assay on A549 NSCLC was over 100 µM; in the assay on CAKI-1 renal, over 50.7 µM; in the assay on HCC-2998 colon, 97.3 µM; in the assay on SF-539 CNS, 2.31 µM; in the assay on SK-MEL-28 melanoma it was over 100 µM; in the assay with SNB-75 CNS, over 93.4 µM. Besides, the TGI in the assay on SW-620 colon is over 100 µM.
